Source: patent publication US20240150334A1, “HSD17B13 INHIBITORS AND/OR DEGRADERS” (Pfizer Inc., priority 2022, published 2024)
Counter-ions that a name gives are not always drawn.

Columns and labels:
HSD17B13 enzyme = HSD17B13 enzyme (Homo sapiens (Human), UniProt Q7Z5P4); assay: hHSD17B13 IC50 Assay (FAC beta-estradiol), purified protein enzyme activity assay with NAD(P)H-Glo luciferase readout; format: biochemical; conditions: geometric mean, 12 μM FAC beta-estradiol, 500 μM NAD+, read-out: hHSD17B13_IC50 GMean IC50
Protocol: The following protocols may of course be varied by those skilled in the art. hHSD17B13 IC50 Assay (FAC beta-estradiol)
HSD17B13 enzyme inhibition potency of test compounds was determined using a purified protein biochemical enzyme activity assay, using NAD(P)H-Glo luciferase readout (Promega). HSD17B13 enzyme uses the oxidized form of nicotinamide adenine dinucleotide (NAD+) as a cofactor during metabolism of Beta-Estradiol (substrate) to […], while converting NAD+ to the reduced form (NADH). The Promega NAD(P)H-Glo™ assay is a homogeneous bioluminescent assay that generates a light signal from biochemical reactions that contain NADH (or nicotinamide adenine dinucleotide phosphate, NADPH). In the presence of NADH (or NADPH), the enzyme Reductase reduces a proluciferin reductase substrate to form luciferin. Luciferin then is quantified using Ultra-Glo™ Recombinant Luciferase (rLuciferase), and the light signal produced is proportional to the amount of NAD(P)H in the sample. […] The reaction was initiated by the addition of 2 μL/well purified HSD17B13 protein (30 nM FAC in assay buffer). Compound, substrate mix and HSD17B13 protein was incubated in the dark at room temperature for 2 hours before the addition of 3 μL/well NAD(P)H-Glo detection reagent, prepared from luciferase detection reagent and reductase/reductase substrate, as per manufacturer's instructions (Promega, G9061). Detection reagent was incubated in the dark for 1 hour at room temperature before plates were read on the Envision plate reader (Perkin Elmer) using a luminescent protocol. Data expressed as relative luminescent units (RLUs) were then normalized to control wells using Activity Base (IDBS). Zero percent effect (ZPE) was defined as RLUs generated from uninhibited HSD17B13 protein (vehicle control).

wild type human HSD17B13 = wild type human HSD17B13 (Homo sapiens (Human), UniProt Q7Z5P4); assay: HEK_Beta-Est LCMS_IC50_Tekcel, whole-cell HEK-HSD17B13 inhibition assay, estrone production by LCMS; format: cell-based; conditions: geometric mean, HEK cells stably expressing wild type human HSD17B13, 25 μM FAC beta-estradiol, read-out: HEK_Beta-Est LCMS_IC50—Tekcel GMean IC50
Outline: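 Readout was LCMS quantitation of estrone made from beta-estradiol with NAD+ as cofactor. Whole HEK-HSD17B13 cells were given compound for 1 hour, then the reaction for 2 hours, both at 37° C. Product area ratios were normalized to vehicle controls as zero percent effect.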

Sequence of HSD17B13 enzyme (Q7Z5P4 20-300): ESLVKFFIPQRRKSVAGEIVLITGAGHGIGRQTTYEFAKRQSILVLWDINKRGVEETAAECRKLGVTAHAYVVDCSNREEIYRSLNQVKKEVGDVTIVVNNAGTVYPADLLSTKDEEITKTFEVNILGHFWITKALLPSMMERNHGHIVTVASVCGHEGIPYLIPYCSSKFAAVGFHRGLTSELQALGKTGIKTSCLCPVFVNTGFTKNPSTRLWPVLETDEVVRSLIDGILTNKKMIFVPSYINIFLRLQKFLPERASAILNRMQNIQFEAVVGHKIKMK
Sequence of wild type human HSD17B13 (Q7Z5P4 20-300): as above

| Compound | IC50 (HSD17B13 enzyme) [µM] | IC50 (wild type human HSD17B13) [µM] |
| --- | --- | --- |
| O=C(NC[C@]12CC[C@](c3nc(-c4ccc(C(F)(F)F)nc4)no3)(CC1)CC2)c1cc(F)c(O)c(F)c1 [Example 140, 3,5-difluoro-4-hydroxy-N-[(4-{3-[6-(trifluoromethyl)pyridin-3-yl]-1,2,4-oxadiazol-5-yl}bicyclo[2.2.2]octan-1-yl)methyl] benzamide] | 0.016 | 0.22 |
| O=C(NC[C@H]1CC[C@H](n2cc3ccc(-c4cncnc4)cc3n2)CC1)c1cc(F)c(O)c(F)c1 [Example 76, 3,5-difluoro-4-hydroxy-N-({(1r,4r)-4-[6-(pyrimidin-5-yl)-2H-indazol-2-yl]cyclohexyl}methyl)benzamide] | 0.019 | 0.19 |
| O=C(NC[C@H]1CC[C@H](n2cc3ccc(-c4ncc(CO)cn4)cc3n2)CC1)c1cc(F)c(O)c(F)c1 [Example 58, 3,5-difluoro-4-hydroxy-N-{[(1r,4r)-4-{6-[5-(hydroxymethyl)pyrimidin-2-yl]-2H-indazol-2-yl}cyclohexyl]methyl} benzamide] | 0.025 | 0.28 |
| O=C(NC[C@H]1CC[C@H](n2cc3ccc(F)cc3n2)CC1)c1cc(F)c(O)c(F)c1 [Example 16, 3,5-Difluoro-N-{[(1r,4r)-4-(6-fluoro-2H-indazol-2-yl)cyclohexyl]methyl}-4-hydroxybenzamide, ammonium salt] | 0.017 | 0.31 |
| O=C(NC[C@H]1CC[C@H](n2cc3cc(OCC4CC4)ncc3n2)CC1)c1cc(F)c(O)c(F)c1 [Example 32, N-({(1r,4r)-4-[5-(cyclopropyl-methoxy)-2H-pyrazolo[3,4-c]pyridin-2-yl]cyclohexyl}methyl)-3,5-difluoro-4-hydroxybenzamide, ammonium salt] | 0.025 | 0.4 |
| Cc1ccc(-c2ccc3cn([C@H]4CC[C@H](CNC(=O)c5cc(F)c(O)c(F)c5)CC4)nc3c2)nc1 [Example 57, 3,5-difluoro-4-hydroxy-N-({(1r,4r)-4-[6-(5-methylpyridin-2-yl)-2H-indazol-2-yl]cyclohexyl}methyl) benzamide] | 0.026 | 0.31 |
| O=C(NC[C@H]1CC[C@H](n2cc3cc(Cl)ccc3n2)CC1)c1cc(F)c(O)cc1F [Example 145, N-{[(1r,4r)-4-(5-chloro-2H-indazol-2-yl)cyclohexyl]methyl}-2,5-difluoro-4-hydroxybenzamide, trifluoroacetate salt] | 0.018 | 0.26 |
| O=C(NC[C@H]1CC[C@H](n2cc3cc(F)ccc3n2)CC1)c1cc(F)c(O)c(F)c1 [Example 133, 3,5-difluoro-N-{[(1r,4r)-4-(5-fluoro-2H-indazol-2-yl)cyclohexyl]methyl}-4-hydroxybenzamide, ammonium salt] | 0.029 | 0.28 |
| Cc1noc([C@H]2CC[C@H](CNC(=O)c3cc(F)c(O)c(F)c3)CC2)n1 [Example 213, 3,5-difluoro-4-hydroxy-N-{[(1r,4r)-4-(3-methyl-1,2,4-oxadiazol-5-yl)cyclohexyl]methyl}benzamide] | 0.064 |  |
| COc1ccc2cn([C@H]3CC[C@H](CNC(=O)c4cc(F)c(O)c(F)c4)CC3)nc2c1 [Example 23, 3,5-difluoro-4-hydroxy-N-{[(1r,4r)-4-(6-methoxy-2H-indazol-2-yl)cyclohexyl]methyl} benzamide] | 0.02 |  |
| Cc1noc([C@H]2CC[C@H](CNC(=O)c3ccc(O)c(F)c3)CC2)n1 [Example 214, 3-fluoro-4-hydroxy-N-{[(1r,4r)-4-(3-methyl-1,2,4-oxadiazol-5-yl)cyclohexyl]methyl} benzamide] | 0.29 |  |

The next molecules have a lower IC50 (HSD17B13 enzyme) than those just listed; values first:

| IC50 (HSD17B13 enzyme) [µM] | IC50 (wild type human HSD17B13) [µM] | Compound |
| --- | --- | --- |
| 0.015 | 0.3 | CN1CCN(c2ccc3cn([C@H]4CC[C@H](CNC(=O)c5cc(F)c(O)c(F)c5)CC4)nc3c2)CC1 [Example 136, 3,5-difluoro-4-hydroxy-N-({(1r,4r)-4-[6-(4-methyl-piperazin-1-yl)-2H-indazol-2-yl]cyclohexyl}methyl) benzamide, ammonium salt] |
| 0.0055 | 0.29 | O=C(NC[C@H]1CC[C@H](c2nc(-c3ncc(C(F)(F)F)cn3)no2)CC1)c1cc(F)c(O)c(F)c1 [Example 4, 3,5-Difluoro-4-hydroxy-N-{[(1r,4r)-4-{3-[5-(trifluoromethyl)pyrimidin-2-yl]-1,2,4-oxadiazol-5-yl}cyclohexyl]methyl}benzamide] |
| 0.0082 | 0.17 | COc1cnc(-c2noc([C@]34CC[C@](CNC(=O)c5cc(F)c(O)c(F)c5F)(CC3)CC4)n2)cn1 [Example 151, 2,3,5-trifluoro-4-hydroxy-N-({4-[3-(5-methoxypyrazin-2-yl)-1,2,4-oxadiazol-5-yl]bicyclo[2.2.2]octan-1-yl}methyl) benzamide] |
| 0.014 | 0.49 | O=C(NC[C@H]1CC[C@H](c2nc3ccccc3o2)CC1)c1cc(F)c(O)c(F)c1 [Example 1, N-{[(1r,4r)-4-(1,3-Benzoxazol-2-yl)cyclohexyl]methyl}-3,5-difluoro-4-hydroxybenzamide] |
| 0.0046 | 0.15 | O=C(NC[C@H]1CC[C@H](n2cc3ccc(-c4cnn(C5CCOC5)c4)cc3n2)CC1)c1cc(F)c(O)c(F)c1 (stereo partly shown) [Example 38, 3,5-difluoro-4-hydroxy-N-{[(1r,4r)-4-{6-[1-(oxolan-3-yl)-1H-pyrazol-4-yl]-2H-indazol-2-yl}cyclohexyl]methyl} benzamide] |
| 0.0048 | 0.12 | O=C(NC[C@H]1CC[C@H](n2cc3ccc(-c4ccncc4)cc3n2)CC1)c1cc(F)c(O)c(F)c1 [Example 61, 3,5-difluoro-4-hydroxy-N-({(1r,4r)-4-[6-(pyridin-4-yl)-2H-indazol-2-yl]cyclohexyl}methyl)benzamide] |
| 0.01 | 0.45 | O=C(NC[C@H]1CC[C@H](n2cc3cc(C(F)(F)F)ccc3n2)CC1)c1cc(F)c(O)cc1F [Example 183, 2,5-difluoro-4-hydroxy-N-({(1r,4r)-4-[5-(trifluoromethyl)-2H-indazol-2-yl]cyclohexyl}methyl)benzamide] |
| 0.01 | 0.16 | O=C(NC[C@]12CC[C@](c3nc(-c4ccc(C(F)F)nc4)no3)(CC1)CC2)c1cc(F)c(O)c(F)c1 [Example 142, N-[(4-{3-[6-(difluoromethyl)pyridin-3-yl]-1,2,4-oxadiazol-5-yl}bicyclo[2.2.2]octan-1-yl)methyl]-3,5-difluoro-4-hydroxybenzamide] |
| 0.0055 | 0.22 | O=C(NC[C@]12CC[C@](c3nc(-c4ccc(C(F)(F)F)nn4)no3)(CC1)CC2)c1cc(F)c(O)c(F)c1F [Example 184, 2,3,5-trifluoro-4-hydroxy-N-[(4-{3-[6-(trifluoromethyl)pyridazin-3-yl]-1,2,4-oxadiazol-5-yl}bicyclo[2.2.2]octan-1-yl)methyl]benzamide] |
| 0.0088 | 0.19 | O=C(NC[C@]12CC[C@](c3nc4ccccc4o3)(CC1)CC2)c1cc(F)c(O)c(F)c1 [Example 141, N-{[4-(1,3-benzoxazol-2-yl)bicyclo[2.2.2]octan-1-yl]methyl}-3,5-difluoro-4-hydroxybenzamide] |
| 0.0043 | 0.31 | Cn1cc(-c2ccc3cn([C@H]4CC[C@H](CNC(=O)c5cc(F)c(O)c(F)c5)CC4)nc3c2)c(C(F)F)n1 [Example 34, N-{[(1r,4r)-4-{6-[3-(difluoromethyl)-1-methyl-1H-pyrazol-4-yl]-2H-indazol-2-yl}cyclohexyl]methyl}-3,5-difluoro-4-hydroxybenzamide] |
| 0.014 | 0.12 | O=C(NC[C@H]1CC[C@H](n2cc3ccc(-c4ncccn4)cc3n2)CC1)c1cc(F)c(O)c(F)c1 [Example 24, 3,5-difluoro-4-hydroxy-N-({(1r,4r)-4-[6-(pyrimidin-2-yl)-2H-indazol-2-yl]cyclohexyl}methyl) benzamide] |
| 0.011 | 0.47 | O=C(NC[C@]12CC[C@](c3nc(-c4ccc(C(F)(F)F)nn4)no3)(CC1)CC2)c1ccc(O)c(F)c1F [Example 180, 2,3-difluoro-4-hydroxy-N-[(4-{3-[6-(trifluoromethyl)pyridazin-3-yl]-1,2,4-oxadiazol-5-yl}bicyclo[2.2.2]octan-1-yl)methyl]benzamide] |
| 0.0096 | 0.43 | O=C(NC[C@H]1CC[C@H](n2cc3ccc(-c4ccnnc4)cc3n2)CC1)c1cc(F)c(O)c(F)c1 [Example 71, 3,5-difluoro-4-hydroxy-N-({(1r,4r)-4-[6-(pyridazin-4-yl)-2H-indazol-2-yl]cyclohexyl}methyl)benzamide] |
| 0.014 | 0.31 | COc1cccc2nn([C@H]3CC[C@H](CNC(=O)c4cc(F)c(O)c(F)c4)CC3)cc12 [Example 122, 3,5-difluoro-4-hydroxy-N-{[(1r,4r)-4-(4-methoxy-2H-indazol-2-yl)cyclohexyl]methyl} benzamide] |
